Columns and labels:
IDO1 [1] = biological target: T1, IDO1 (Homo sapiens, UniProt P14902); assay: IDO1 Cellular Assay in HeLa Cells Stimulated with IFNγ; format: cell-based; details: IFNγ 100 ng/mL, 300 uM L-tryptophan, about 48 hours, fluorescence readout, read-out: IDO1 HELA Cell Assay, IC50
IDO1 [2] = biological target: T1, IDO1; assay: IDO1 Human Whole Blood Assay; format: cell-based; design: Human whole blood was drawn in sodium heparin coated tubes from healthy internal donors; from tissue; host or cells: human whole blood from healthy donors, stimulated with LPS and IFNγ; details: LPS and IFNγ 100 ng/mL, overnight (18 h), kynurenine by LC/MS/MS
Description: IDO1 Human Whole Blood Assay
Compounds to be tested were serially diluted in ten 3-fold steps in DMSO starting from 10 mM. 3 μL of compound dilutions or DMSO alone were then dispensed from the dilution plate into a polypropylene 96-well assay plate containing 97 μL of RPMI medium using an Echo 555 acoustic liquid handler (Labcyte). LPS and IFNγ was prepared in RPMI medium to a 10× of final conc. (1000 ng/mL), final concentration is 100 ng/mL.
Human whole blood was drawn in sodium heparin coated tubes from healthy internal donors. 240 μL of blood was transferred to each of the wells of a v-bottom 96 well plate. 30 μL of compound was transferred from intermediate dilution plate, and incubated for 15 min. 30 μL from stimulants was then transferred to blood and mixed thoroughly. Plate was covered with breathable membrane and incubated at 37° C. for overnight (18 h).
On day 2, isotope labeled standard solutions of kynurenine and tryptophan was made in water at 10× concentration and 30 μL was added to the blood at 3 μM final concentration. The assay plates were centrifuged at 300×G for 10 min with no brake to separate plasma from red blood cells. 60 μL of plasma samples was removed without disturbing red blood cells. Plasma was diluted with RPMI in 1:1 ratio and proteins were precipitated out with two volumes of Acetonitrile. The plates were centrifuged at 4000×G for 60 min. 20 μL of supernatant was carefully transferred to a 384 well plate containing 40 μL of 0.1% formic acid in water and analyzed by LC/MS/MS.
LC/MS/MS analyses were performed using Thermo Fisher's LX4-TSQ Quantum Ultra system. This system consists of four Agilent binary high-performance liquid chromatography (HPLC) pumps and a TSQ Quantum Ultra triple quadrupole MS/MS instrument. For each sample, 5 μL were injected onto an Atlantis T3 column (2.1 mm×150 mm, 3 μm particle size) from Waters. The mobile phase gradient pumped at 0.8 mL/min was used to elute the analytes from the column at 25 EC. The elution started at 0% B increasing linearly to 25% B at 6.5 min, holding at 25% for 1 min, re-equilibrating to 10 min. Mobile phase A consisted of 0.1% formic acid in water. Mobile phase B consisted of 0.1% of formic acid in acetonitrile. Data were acquired in positive mode using a HESI interface. The operational parameters for the TSQ Quantum Ultra instrument were a spray voltage of 4000 V, capillary temperature of 380° C., vaporizer temperature 400° C., shealth gas 60 arbitrary units, Aux gas 20 arbitrary units, tube lens 85 and collision gas 1.2 mTorr. SRM chromatograms of kynurenine (Qi: 209.2>Q3:94.0) and internal standard (Qi: 215.3>Q3:98.2) were collected for 90 sec. The peak area was integrated by Xcalibur Quan software. The ratios between the kynurenine generated in the reaction and 2D6-Kynurenine spiked-in internal standard were used to generate percentage inhibition and IC50 values. Compounds were titrated and IC50's were calculated by 4 parameter sigmoidal curve fitting formula.
The biological activity data of selective compounds using the IDO1 human whole blood assay described above are summarized in the table below.

T1 sequence (P14902 whole entry): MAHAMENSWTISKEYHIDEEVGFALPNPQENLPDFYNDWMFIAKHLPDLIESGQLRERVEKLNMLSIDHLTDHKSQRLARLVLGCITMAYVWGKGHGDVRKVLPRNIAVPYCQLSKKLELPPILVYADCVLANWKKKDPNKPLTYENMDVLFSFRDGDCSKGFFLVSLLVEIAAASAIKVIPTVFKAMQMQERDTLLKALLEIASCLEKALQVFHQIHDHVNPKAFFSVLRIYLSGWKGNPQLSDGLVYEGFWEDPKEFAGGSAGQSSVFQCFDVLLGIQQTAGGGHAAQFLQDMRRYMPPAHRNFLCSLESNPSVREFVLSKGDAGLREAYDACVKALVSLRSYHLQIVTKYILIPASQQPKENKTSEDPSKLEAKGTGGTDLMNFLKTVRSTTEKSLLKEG

Compound	IC50 (IDO1 [1])	IC50 (IDO1 [2])
Cc1cccc(C2CCN(C(=O)Cn3nc(C(=O)N4CCO[C@H](CO)C4)c4c3CCC4)CC2)c1C [Example 43, (S)-1-(4-(2,3-dimethylphenyl)piperidin-1-yl)-2-(3-(2-(hydroxymethyl)morpholine-4-carbonyl)-5,6-dihydrocyclopenta[c]pyrazol-1(4H)-yl) ethanone]	5.5 nM	192 nM
Cc1cccc(C2CCN(C(=O)Cn3nc(C(=O)N4CC[C@@H](O)[C@H](C)C4)c4c3C[C@H]3C[C@@H]43)CC2)c1C [Example 19, 1-[4-(2,3-dimethylphenyl)piperidin-1-yl]-2-{(3bR,4aR)-3-[(3R,4R)-4-hydroxy-3-methylpiperidine-1-carbonyl]-3b,4,4a,5-tetrahydro-1H-cyclopropa[3,4]cyclopenta[1,2-c]pyrazol-1-yl}ethan-1-one]	0.9 nM	219 nM
Cc1c(Cl)cccc1C1CCN(C(=O)Cn2nc(C(=O)N3CCN(C(=O)CO)CC3)c3c2C[C@H]2C[C@@H]32)CC1 [Example 17, 1-(4-(3-chloro-2-methylphenyl)piperidin-1-yl)-2-((3bR,4aR)-3-(4-(2-hydroxyacetyl)piperazine-1-carbonyl)-3b,4,4a,5-tetrahydro-1H-cyclopropa[3,4]cyclopenta[1,2-c]pyrazol-1-yl)ethanone]	1 nM	59.6 nM
Cc1c(F)ccc(C2CCN(C(=O)Cn3nc(C(=O)N4C[C@@H](C)O[C@@H](C)C4)c4c3CCC4)CC2)c1C [Example 172, 2-{3-[(2R,6S)-2,6-dimethylmorpholine-4-carbonyl]-5,6-dihydrocyclopenta[c]pyrazol-1(4H)-yl}-1-[4-(4-fluoro-2,3-dimethylphenyl)piperidin-1-yl]ethan-1-one]	1.7 nM	434 nM
Cc1cccc(C2CCN(C(=O)Cn3nc(C(=O)N4CC[C@H](O)[C@@H](F)C4)c4c3CCCC4)CC2)c1C [Example 32, 1-(4-(2,3-dimethylphenyl)piperidin-1-yl)-2-(3-((3S,4S)-3-fluoro-4-hydroxypiperidine-1-carbonyl)-4,5,6,7-tetrahydro-1H-indazol-1-yl) ethanone]	0.8 nM	83.7 nM
Cc1cccc(C2CCN(C(=O)Cn3nc(C(=O)N4CCC(O)(CF)CC4)c4c3CCC4)CC2)c1C [Example 31, 1-[4-(2,3-dimethylphenyl)-1-piperidyl]-2-[3-[4-(fluoromethyl)-4-hydroxy-piperidine-1-carbonyl]-5,6-dihydro-4H-cyclopenta[c]pyrazol-1-yl]ethanone]	5.1 nM	87.6 nM
Cc1ccccc1C1CCN(C(=O)Cn2nc(C(=O)N3C[C@@H](C)O[C@@H](C)C3)c3c2CCC3)CC1 [Example 62, 2-(3-((2S,6R)-2,6-dimethylmorpholine-4-carbonyl)-5,6-dihydrocyclopenta[c]pyrazol-1(4H)-yl)-1-(4-(o-tolyl)piperidin-1-yl)ethan-1-one]	9.8 nM	475 nM
Cc1cccc(C2CCN(C(=O)Cn3nc(C(=O)N4C[C@@H](C)O[C@@H](C)C4)c4c3CCC4)CC2)c1 [Example 65, 2-(3-((2S,6R)-2,6-dimethylmorpholine-4-carbonyl)-5,6-dihydrocyclopenta [c]pyrazol-1(4H)-yl)-1-(4-(m-tolyl)piperidin-1-yl)ethanone]	15.8 nM	652 nM
Cc1cc(F)ccc1C1CCN(C(=O)Cn2nc(C(=O)N3C[C@@H](C)O[C@@H](C)C3)c3c2CCC3)CC1 [Example 92, 2-{3-[(2R,6S)-2,6-dimethylmorpholine-4-carbonyl]-5,6-dihydrocyclopenta[c]pyrazol-1(4H)-yl}-1-[4-(4-fluoro-2-methylphenyl)piperidin-1-yl]ethan-1-one]	14.4 nM	–
C[C@@H]1CN(C(=O)c2nn(CC(=O)N3CCC(c4ccccc4OC(F)(F)F)CC3)c3c2CCC3)C[C@H](C)O1 [Example 163, 2-{3-[(2R,6S)-2,6-dimethylmorpholine-4-carbonyl]-5,6-dihydrocyclopenta[c]pyrazol-1(4H)-yl}-1-{4-[2-(trifluoromethoxy)phenyl]piperidin-1-yl}ethan-1-one]	177 nM	–
C[C@@H]1CN(C(=O)c2nn(CC(=O)N3CCCC(c4ccccc4)CC3)c3c2CCC3)C[C@H](C)O1 (stereo partly drawn) [Example 74, 2-{3-[(2R,6S)-2,6-dimethylmorpholine-4-carbonyl]-5,6-dihydrocyclopenta[c]pyrazol-1(4H)-yl}-1-(4-phenylazepan-1-yl)ethan-1-one]	170 nM	–
C[C@@H]1CN(C(=O)c2nn(CC(=O)N3CCC(c4cccc(Cl)c4)CC3)c3c2CCC3)C[C@H](C)O1 [Example 107, 1-[4-(3-chlorophenyl)piperidin-1-yl]-2-{3-[(2R,6S)-2,6-dimethylmorpholine-4-carbonyl]-5,6-dihydrocyclopenta[c]pyrazol-1(4H)-yl}ethan-1-one]	31.5 nM	–
C[C@@H]1CN(C(=O)c2nn(CC(=O)N3CCC(c4ccc(C(F)(F)F)cc4F)CC3)c3c2CCC3)C[C@H](C)O1 [Example 147, 2-{3-[(2R,6S)-2,6-dimethylmorpholine-4-carbonyl]-5,6-dihydrocyclopenta[c]pyrazol-1(4H)-yl}-1-{4-[2-fluoro-4-(trifluoromethyl)phenyl]piperidin-1-yl}ethan-1-one]	109 nM	–
C[C@@H]1CN(C(=O)c2nn(CC(=O)N3CCC(c4cccc5ccccc45)CC3)c3c2CCC3)C[C@H](C)O1 [Example 69, 2-{3-[(2R,6S)-2,6-dimethylmorpholine-4-carbonyl]-5,6-dihydrocyclopenta[c]pyrazol-1(4H)-yl}-1-[4-(naphthalen-1-yl)piperidin-1-yl]ethan-1-one]	6.4 nM	–
Cc1cccc(C2CCN(C(=O)Cn3nc(C(=O)N4CCC(O)CC4)c4c3CCC4)CC2(F)F)c1C (single isomer, unassigned) [Example 15, 1-(4-(2,3-dimethylphenyl)-3,3-difluoropiperidin-1-yl)-2-(3-(4-hydroxypiperidine-1-carbonyl)-5,6-dihydrocyclopenta[c]pyrazol-1(4H)-yl)ethanone]	11.6 nM	–
Cc1c(C2CCN(C(=O)Cn3nc(C(=O)N4C[C@@H](C)O[C@@H](C)C4)c4c3CCC4)CC2)ccc(F)c1F [Example 174, 1-[4-(3,4-difluoro-2-methylphenyl)piperidin-1-yl]-2-{3-[(2R,6S)-2,6-dimethylmorpholine-4-carbonyl]-5,6-dihydrocyclopenta[c]pyrazol-1(4H)-yl}ethan-1-one]	10.3 nM	–
C[C@@H]1CN(C(=O)c2nn(CC(=O)N3CCC(c4cccc(OC(F)(F)F)c4)CC3)c3c2CCC3)C[C@H](C)O1 [Example 160, 2-{3-[(2R,6S)-2,6-dimethylmorpholine-4-carbonyl]-5,6-dihydrocyclopenta[c]pyrazol-1(4H)-yl}-1-{4-[3-(trifluoromethoxy)phenyl]piperidin-1-yl}ethan-1-one]	162 nM	–
Cc1cc(C2CCN(C(=O)Cn3nc(C(=O)N4C[C@@H](C)O[C@@H](C)C4)c4c3CCC4)CC2)ccc1F [Example 94, 2-{3-[(2R,6S)-2,6-dimethylmorpholine-4-carbonyl]-5,6-dihydrocyclopenta[c]pyrazol-1(4H)-yl}-1-[4-(4-fluoro-3-methylphenyl)piperidin-1-yl]ethan-1-one]	18.9 nM	–
COc1ccc(F)c(C2CCN(C(=O)Cn3nc(C(=O)N4C[C@@H](C)O[C@@H](C)C4)c4c3CCC4)CC2)c1 [Example 156, 2-{3-[(2R,6S)-2,6-dimethylmorpholine-4-carbonyl]-5,6-dihydrocyclopenta[c]pyrazol-1(4H)-yl}-1-[4-(2-fluoro-5-methoxyphenyl)piperidin-1-yl]ethan-1-one]	149 nM	–
